Read-outs that look alike come from different tables or passages of the source.
Assays:
[1] = system: murine leukaemia cell line (L1210); settings: cited from earlier work
[2] = set-up: method as in earlier work; settings: heterocyclic ligand; cited from earlier work
HT29 colon cells [3] = system: HT29 colon cells; set-up: method as in PMID 36142383; settings: cited from earlier work
MIA pancreas = system: MIA pancreas; set-up: method as in PMID 36142383; settings: MTT assay, 72 h; cited from earlier work
SJ-G2 glioblastoma = system: SJ-G2 glioblastoma; set-up: method as in PMID 36142383; settings: MTT assay, 72 h; cited from earlier work
panel of cell lines [4] = system: panel of cell lines; set-up: method as in PMID 36142383; settings: average over the cell lines tested, MTT assay, 72 h; cited from earlier work
U87 glioblastoma = system: U87 glioblastoma; set-up: method as in PMID 36142383; settings: MTT assay, 72 h; cited from earlier work
A2780 ovarian = system: A2780 ovarian; set-up: method as in PMID 36142383; settings: MTT assay, 72 h; cited from earlier work
BE2-C neuroblastoma = system: BE2-C neuroblastoma; set-up: method as in PMID 36142383; settings: MTT assay, 72 h; cited from earlier work
[5] = system: ADDP-resistant ovarian variant; set-up: method as in PMID 36142383; settings: MTT assay, 72 h; cited from earlier work
panel of cell lines [6] = assay: MTT growth inhibition assay, whole panel of cell lines; format: cell-based, human; settings: platinum(IV) precursor less cytotoxic than platinum(II) precursor, all cell lines
Du145 prostate [7] = system: Du145 prostate; set-up: method as in PMID 36142383; settings: MTT assay, 72 h; cited from earlier work
[8] = system: non-tumour derived MCF10A breast line; set-up: method as in PMID 36142383; settings: MTT assay, 72 h; cited from earlier work
HT29 colon [9] = system: HT29 colon; set-up: method as in PMID 36142383; settings: MTT assay, 72 h; cited from earlier work
MCF-7 breast = system: MCF-7 breast; set-up: method as in PMID 36142383; settings: MTT assay, 72 h; cited from earlier work
A431 skin = system: A431 skin; set-up: method as in PMID 36142383; settings: MTT assay, 72 h; cited from earlier work
H460 lung = system: H460 lung; set-up: method as in PMID 36142383; settings: MTT assay, 72 h; cited from earlier work
[10] = system: murine leukaemia cell line (L1210); assay: Cytotoxicity in L1210 (literature); format: cell-based; settings: SS more cytotoxic than RR
Description: Chirality is crucial to the biological activity of the studied complexes.

Du145 prostate [11] = assay: MTT growth inhibition assay, Du145; format: cell-based, human; settings: Du145 prostate, ratio of GI50 values
HT29 colon [12] = assay: MTT growth inhibition assay, HT29; format: cell-based, human
[13] = system: peritoneal carcinomatosis; set-up: method as in PMID 20535526; settings: cited from earlier work
[14] = system: ADDP-resistant ovarian variant; assay: MTT growth inhibition assay, ADDP; format: cell-based, human
[15] = system: PC3 (prostate carcinoma) tumour xenografts; set-up: method as in PMID 18997969; settings: PC3 xenograft mice; cited from earlier work
HT29 colon cells [16] = assay: ROS detection assay (DCFH-DA); format: cell-based, human; settings: HT29 colon cells, treated at GI50 concentration (TBHP positive control 20 μM)

Structure (SMILES) | GI50 [1] | ROS production 24 h (HT29 colon cells [3]) | ROS production 48 h (HT29 colon cells [3]) | ROS production 72 h (HT29 colon cells [3]) | GI50 (MIA pancreas) | GI50 (SJ-G2 glioblastoma) | GI50 (panel of cell lines [4]) | GI50 (U87 glioblastoma) | GI50 (A2780 ovarian) | GI50 (BE2-C neuroblastoma) | GI50 [5] | GI50 (Du145 prostate [7]) | GI50 [8] | GI50 (HT29 colon [9]) | GI50 (MCF-7 breast) | GI50 (A431 skin) | GI50 (H460 lung) | other results
Cc1c(C)c2c3c4c1=CC=C[N]4[Pt+2][N]3C=CC=2.N[C@@H]1CCCC[C@H]1N [Complex 56MERR] | 460 nM | – | – | – | – | – | – | – | – | – | – | – | – | – | – | – | – | –
c1cnc2c(c1)ccc1cccnc12 [phen, 1,10-phenanthroline] | – | – | – | – | – | – | – | – | – | – | – | – | – | – | – | – | – | pKa [2]: 4.9
Cc1c(C)c2c3c4c1=CC=C[N]4[Pt+2]([OH])([OH])[N]3C=CC=2.N[C@H]1CCCC[C@@H]1N [56MESS(IV)(OH)2] | – | 259 ± 3 RFU | 356 ± 11 RFU | 438 ± 7 RFU | 43 ± 2.5 nM | 210 ± 45 nM | 151 ± 50 nM | 190 ± 23 nM | 59 ± 7 nM | 240 ± 22 nM | 170 ± 120 nM | 15 ± 2.6 nM | 61 ± 7 nM | 36 ± 7 nM | 480 ± 140 nM | 120 ± 22 nM | 190 ± 150 nM | fold difference in average GI50 versus corresponding platinum(II) precursor (panel of cell lines [6]): 4 fold
C1=C[N]2[Pt+2][N]3C=CC=c4ccc(c2c43)=C1.N[C@@H]1CCCC[C@H]1N [PHENRR] | 1500 nM | – | – | – | – | – | – | – | – | – | – | – | – | – | – | – | – | –
Cc1c(C)c2cccnc2c2ncccc12.N[C@H]1CCCC[C@@H]1N.[Pt] [Complex 56MESS, [Pt^II(5,6-Me2phen)(SS-DACH)]^2+] | 9 nM | 240 ± 5 RFU | 218 ± 3 RFU | 255 ± 4 RFU | 13 ± 2 nM | 66 ± 22 nM | 36 ± 10 nM | 35 ± 6.4 nM | 76 ± 57 nM | 59 ± 4 nM | 13 ± 2 nM | 4.6 ± 0.4 nM | 16 ± 1 nM | 10 ± 1.6 nM | 93 ± 44 nM | 29 ± 1 nM | 21 ± 2 nM | fold difference in cytotoxicity between RR-DACH and SS-DACH enantiomer [10]: 51 fold; fold increase in potency over carboplatin (Du145 prostate [11]): ~3300 fold; fold increase in potency over oxaliplatin (Du145 prostate [11]): 630 fold; fold more reactive compared to cisplatin (HT29 colon [12]; HT29 colon, ratio of GI50 values): 1100 fold; nephrotoxicity ([13]; at pharmacological doses): induced nephrotoxicity; tumour suppression response ([13]; intravenous and intraperitoneal treatment): did not elicit a tumour suppression response; fold more potent than cisplatin ([14]; ADDP-resistant ovarian variant, ratio of GI50 values): 2150 fold
C1=C[N]2[Pt+2][N]3C=CC=c4ccc(c2c43)=C1.N[C@H]1CCCC[C@@H]1N [PHENSS, [Pt^II(phen)(SS-DACH)]^2+] | 130 nM | 174 ± 2 RFU | 172 ± 9 RFU | 176 ± 7 RFU | 200 ± 57 nM | 330 ± 66 nM | 434 ± 110 nM | 980 ± 270 nM | 230 ± 30 nM | 380 ± 46 nM | 190 ± 47 nM | 100 ± 38 nM | 300 ± 58 nM | 160 ± 45 nM | 1500 ± 500 nM | 480 ± 170 nM | 360 ± 35 nM | fold difference in cytotoxicity between RR-DACH and SS-DACH enantiomer [10]: ~12 fold; fold more reactive compared to cisplatin (HT29 colon [12]): 70 fold; mean tumour weight in relation to the control group [15]: comparable decrease in mean tumour weight; toxicity / mortality [15]: no obvious signs of toxicity; fold more potent than cisplatin [14]: ~150 fold
Cc1c(C)c2cccnc2c2ncccc12 [5,6-Me2phen, 5,6-dimethyl-1,10-phenanthroline] | – | – | – | – | – | – | – | – | – | – | – | – | – | – | – | – | – | pKa [2]: 5.6
N.N.[Cl][Pt][Cl] [Cisplatin, Cis-diamminedichloroplatinum(II)] | – | – | – | – | 7500 ± 1300 nM | 400 ± 100 nM | 5840 ± 610 nM | 3800 ± 1100 nM | 1000 ± 100 nM | 1900 ± 200 nM | 28000 nM | 1200 ± 100 nM | 5200 ± 520 nM | 11300 nM | 6500 ± 800 nM | 2400 ± 300 nM | 900 ± 200 nM | ROS production 24 h (HT29 colon cells [16]; 24 h): 221 ± 10 RFU; ROS production 48 h (HT29 colon cells [16]; 48 h): 280 ± 12 RFU; ROS production 72 h (HT29 colon cells [16]; 72 h): 318 ± 9 RFU; mean tumour weight in relation to the control group [15]: comparable decrease in mean tumour weight
N[C@H]1CCCC[C@@H]1N.[OH][Pt+2]1([OH])[N]2C=CC=c3ccc4c(c32)[N]1C=CC=4 [PHENSS(IV)(OH)2] | – | 144 ± 5 RFU | 273 ± 4 RFU | 303 ± 1 RFU | 3400 ± 2200 nM | 1700 ± 350 nM | 3320 ± 880 nM | 4900 ± 610 nM | 800 ± 84 nM | 3000 ± 530 nM | 1300 ± 350 nM | 310 ± 92 nM | 1700 ± 200 nM | 710 ± 300 nM | 16000 nM | 4300 ± 530 nM | 1700 ± 200 nM | fold difference in average GI50 versus corresponding platinum(II) precursor (panel of cell lines [6]): ~8 fold
N.N.O=C([O-])C1(C(=O)[O-])CCC1.[Pt+2] [Carboplatin, cis-diammine(1,1-cyclobutanedicarboxylato) platinum(II)] | – | – | – | – | > 50000 nM | 5700 ± 200 nM | – | > 50000 nM | 9200 ± 2900 nM | 19000 nM | > 50000 nM | 15000 nM | > 50000 nM | > 50000 nM | > 50000 nM | 24000 nM | 14000 nM | –
